Here are results for eight compounds from US12187742B2 (XRAD Therapeutics, Inc., priority 2018, dated 2025).

For orientation: IC50 means the concentration that inhibits the measured activity by half. Low values mean greater potency, high ones weaker potency.

SMILES strings stand for the structures. Counter-ions that a name gives are not always drawn. Where only a bound is given, the exact number is not on record here.

One experiment addresses DNA-PK (Homo sapiens (Human), UniProt P78527). As to the kind of experiment: DNA-PK Enzyme-Linked Immunosorbent Assay (phosphorylation of GST-p53 (1-101) peptide). The experiment is classed as biochemical. To be noted: ELISA. Put shortly: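 ELISA with plate-bound GST-p53 (1-101) phosphorylated by DNA-PK (0.1 μg/mL final) with 20 μM ATP for 1 h at 25 °C. Compounds tested over 10 3-fold doses from 100 nM top final. Phospho-p53 Ser15 detected by antibody, HRP and TMB, absorbance at 450 nm.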
(In general: ELISA stands for enzyme-linked immunosorbent assay.)

The next experiment deals with ATM (Homo sapiens (Human), UniProt Q13315). As to the kind of experiment: ATM in Cell Western Assay (pKAP1 in etoposide-treated MCF-7 cells). The experiment is classed as cell-based. An outline of the steps:
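Cells received compounds in a 10-dose, 3-fold series from a 1 μM final top concentration, then 100 μM etoposide, for 1 hr at 37° C. They were then fixed with paraformaldehyde and permeabilized with 0.1% Triton X-100. After immunostaining, plates were scanned on an infrared imager.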

The mark [1] stands for this setting: pKAP1 in etoposide-treated MCF-7 cells.
Where [2] appears, read: MCF-7 cells, etoposide 100 μM, 1 hr, pKAP1 readout.

ATM, sequence (Q13315 whole entry): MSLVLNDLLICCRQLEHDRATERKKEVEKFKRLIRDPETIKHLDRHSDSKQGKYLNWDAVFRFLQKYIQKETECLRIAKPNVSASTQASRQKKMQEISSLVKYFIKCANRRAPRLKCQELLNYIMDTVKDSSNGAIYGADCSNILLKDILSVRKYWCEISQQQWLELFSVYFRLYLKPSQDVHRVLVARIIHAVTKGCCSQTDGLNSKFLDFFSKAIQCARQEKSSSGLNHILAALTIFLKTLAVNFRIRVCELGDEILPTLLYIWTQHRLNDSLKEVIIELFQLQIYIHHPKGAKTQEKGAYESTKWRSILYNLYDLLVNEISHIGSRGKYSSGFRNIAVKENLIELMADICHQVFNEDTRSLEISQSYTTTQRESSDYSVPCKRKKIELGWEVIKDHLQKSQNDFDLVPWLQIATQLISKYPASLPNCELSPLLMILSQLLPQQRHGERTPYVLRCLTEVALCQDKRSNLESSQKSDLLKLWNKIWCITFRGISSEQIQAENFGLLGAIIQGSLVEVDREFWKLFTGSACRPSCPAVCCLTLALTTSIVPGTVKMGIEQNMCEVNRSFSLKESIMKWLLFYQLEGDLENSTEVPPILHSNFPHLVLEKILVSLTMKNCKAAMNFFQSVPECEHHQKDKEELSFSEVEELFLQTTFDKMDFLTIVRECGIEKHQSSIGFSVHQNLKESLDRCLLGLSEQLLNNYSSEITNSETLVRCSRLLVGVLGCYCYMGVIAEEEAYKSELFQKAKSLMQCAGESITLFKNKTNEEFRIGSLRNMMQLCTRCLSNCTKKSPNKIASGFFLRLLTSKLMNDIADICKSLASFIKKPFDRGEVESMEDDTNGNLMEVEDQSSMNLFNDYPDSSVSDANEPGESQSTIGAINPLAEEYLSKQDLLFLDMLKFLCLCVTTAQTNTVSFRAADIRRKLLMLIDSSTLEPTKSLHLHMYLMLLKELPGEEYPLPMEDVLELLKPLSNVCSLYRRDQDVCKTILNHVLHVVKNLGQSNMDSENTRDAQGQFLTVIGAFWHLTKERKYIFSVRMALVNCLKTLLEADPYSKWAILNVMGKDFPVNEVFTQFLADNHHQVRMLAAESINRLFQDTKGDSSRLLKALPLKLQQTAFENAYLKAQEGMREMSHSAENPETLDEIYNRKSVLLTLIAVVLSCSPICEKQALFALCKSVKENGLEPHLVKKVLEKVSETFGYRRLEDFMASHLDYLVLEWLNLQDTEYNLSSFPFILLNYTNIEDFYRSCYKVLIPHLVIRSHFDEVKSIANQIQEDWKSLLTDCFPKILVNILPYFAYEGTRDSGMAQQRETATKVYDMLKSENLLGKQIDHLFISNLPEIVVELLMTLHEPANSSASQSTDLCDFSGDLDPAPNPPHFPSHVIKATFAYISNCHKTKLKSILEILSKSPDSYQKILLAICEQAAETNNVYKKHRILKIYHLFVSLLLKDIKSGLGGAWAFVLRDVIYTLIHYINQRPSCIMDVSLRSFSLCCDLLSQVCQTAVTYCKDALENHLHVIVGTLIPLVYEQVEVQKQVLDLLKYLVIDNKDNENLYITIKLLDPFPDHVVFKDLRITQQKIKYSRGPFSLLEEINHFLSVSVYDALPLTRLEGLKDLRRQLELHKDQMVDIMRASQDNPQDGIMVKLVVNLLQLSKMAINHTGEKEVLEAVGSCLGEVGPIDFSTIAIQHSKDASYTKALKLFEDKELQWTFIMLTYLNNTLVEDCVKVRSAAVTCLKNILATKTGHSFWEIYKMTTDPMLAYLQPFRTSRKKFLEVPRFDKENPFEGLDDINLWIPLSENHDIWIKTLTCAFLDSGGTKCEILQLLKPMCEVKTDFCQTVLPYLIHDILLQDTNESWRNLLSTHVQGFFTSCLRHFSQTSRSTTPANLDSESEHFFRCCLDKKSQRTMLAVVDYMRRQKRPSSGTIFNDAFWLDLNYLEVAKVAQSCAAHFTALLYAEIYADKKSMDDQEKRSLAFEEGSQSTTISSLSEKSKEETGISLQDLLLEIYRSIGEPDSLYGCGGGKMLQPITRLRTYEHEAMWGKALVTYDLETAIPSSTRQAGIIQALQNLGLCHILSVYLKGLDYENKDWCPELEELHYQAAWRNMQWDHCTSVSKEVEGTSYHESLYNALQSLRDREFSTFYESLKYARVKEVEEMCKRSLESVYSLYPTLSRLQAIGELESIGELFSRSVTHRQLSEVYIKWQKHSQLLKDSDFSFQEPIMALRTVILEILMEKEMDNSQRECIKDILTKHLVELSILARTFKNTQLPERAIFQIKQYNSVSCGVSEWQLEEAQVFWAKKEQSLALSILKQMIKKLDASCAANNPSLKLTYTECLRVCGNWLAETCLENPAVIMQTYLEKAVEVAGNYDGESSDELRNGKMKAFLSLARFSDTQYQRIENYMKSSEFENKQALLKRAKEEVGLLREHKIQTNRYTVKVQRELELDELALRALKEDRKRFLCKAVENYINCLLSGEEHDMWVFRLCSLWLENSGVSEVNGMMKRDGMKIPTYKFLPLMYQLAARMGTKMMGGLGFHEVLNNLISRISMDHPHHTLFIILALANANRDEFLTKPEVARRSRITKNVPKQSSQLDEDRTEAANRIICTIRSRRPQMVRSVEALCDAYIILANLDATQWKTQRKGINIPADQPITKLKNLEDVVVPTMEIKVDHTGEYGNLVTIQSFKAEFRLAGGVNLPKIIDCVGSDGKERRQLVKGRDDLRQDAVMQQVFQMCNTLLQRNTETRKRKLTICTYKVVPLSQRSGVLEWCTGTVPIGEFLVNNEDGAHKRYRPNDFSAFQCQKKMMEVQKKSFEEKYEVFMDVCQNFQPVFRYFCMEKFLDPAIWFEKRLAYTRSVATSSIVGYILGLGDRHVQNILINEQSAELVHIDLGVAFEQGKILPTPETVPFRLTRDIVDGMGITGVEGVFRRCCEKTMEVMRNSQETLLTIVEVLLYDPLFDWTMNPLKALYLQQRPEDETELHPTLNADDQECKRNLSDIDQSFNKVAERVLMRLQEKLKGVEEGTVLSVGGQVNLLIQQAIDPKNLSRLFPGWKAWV

As to `CC(C)NCCOc1ncc(-c2cc3c(cc2F)ncc2c3[C@]3(C[C@H](COC(C)C)C3)C(=O)N2C)cc1NS(C)(=O)=O` [Example 410, cis-N-(5-(7′-Fluoro-3-(isopropoxymethyl)-3′-methyl-2′-oxo-2′,3′-dihydrospiro[cyclobutane-1,1′-pyrrolo[2,3-c]quinolin]-8′-yl)-2-(2-(isopropylamino)ethoxy)pyridin-3-yl)methanesulfonamide], the IC50 is less than 0.5 nM against DNA-PK (20 μM ATP) and 1 to 100 nM against ATM (setting [1]).
Turning to `COC1CCN(S(=O)(=O)Nc2cc(-c3ccc4ncc5c(c4c3)C3(CCC3)C(=O)N5C)cnc2OCCCN(C)C)CC1` [Example 187, N-(2-(3-(Dimethylamino)propoxy)-5-(3′-methyl-2′-oxo-2′,3′-dihydrospiro[cyclobulane-1,1′-pyrrolo[2,3-c]quinolin]-8′-yl)pyridin-3-yl)-4-methoxypiperidine-1-sulfonamide], the IC50 against DNA-PK (ATP 20 μM) and against ATM (setting [2]) was 1 to 100 nM each time.
Consider `CC(C)NCCOc1ncc(-c2cc3c4c(cnc3cc2F)N(C)C(=O)C42CCC2)cc1NS(=O)(=O)C1CC1` [Example 365, N-(5-(7′-Fluoro-3′-methyl-2′-oxo-2′,3′-dihydrospiro[cyclobutane-1,1′-pyrrolo[2,3-c]quinolin]-8′-yl)-2-(2-(isopropylamino)ethoxy)pyridin-3-yl)cyclopropanesulfonamide hydrochloride], for which the IC50 against DNA-PK (20 μM ATP) and against ATM (setting [1]) was 1 to 100 nM in each case.
Turning to `CO[C@H]1C[C@]2(C1)C(=O)N(C)c1cnc3cc(F)c(-c4cnc(OCCNC(C)C)c(NS(=O)(=O)C5CC5)c4)cc3c12` [Example 387, cis-N-(5-(7′-Fluoro-3-methoxy-3′-methyl-2′-oxo-2′,3′-dihydrospiro[cyclobutane-1,1′-pyrrolo[2,3-c]quinolin]-8′-yl)-2-(2-(isopropylamino)ethoxy)pyridin-3-yl)cyclopropanesulfonamid], the IC50 against DNA-PK (20 μM ATP) and on ATM (setting [1]) was 1 to 100 nM each time.
On to `CN(C)CCCOc1ncc(-c2ccc3ncc4c(c3c2)C2(CCC2)C(=O)N4C)cc1NS(=O)(=O)CCN(C)C` [Example 264, 2-(Dimethylamino)-N-(2-(3-(dimethylamino)propoxy)-5-(3′-methyl-2′-oxo-2′,3′-dihydrospiro[cyclobutane-1,1′-pyrrolo[2,3-c]quinolin]-8′-yl)pyridin-3-yl)ethane-1-sulfonamide], for which the IC50 lay within 1 to 100 nM against DNA-PK (ATP 20 μM) and 0.5 to 1 nM on ATM (setting [2]).
The like results for `CN1C(=O)C2(CCC2)c2c1cnc1ccc(-c3cnc(OCCCN4CCCC(F)C4)c(NS(C)(=O)=O)c3)cc21` (stereo not shown) [Example 282, N-(2-(3-(3-Fluoropiperidin-1-yl)propoxy)-5-(3′-methyl-2′-oxo-2′,3′-dihydrospiro[cyclobutane-1,1′-pyrrolo[2,3-c]quinolin]-8′-yl)pyridin-3-yl)methanesulfonamide] were, in that order, less than 0.5 nM and 1 to 100 nM.
In the case of `CN1C(=O)C2(CCC2)c2c1cnc1ccc(-c3cnc(N4CCC(N5CCOCC5)CC4)c(NS(=O)(=O)C4CC4)c3)cc21` [Example 356, N-(5-(3′-Methyl-2′-oxo-2′,3′-dihydrospiro[cyclobutane-1,1′-pyrrolo[2,3-c]quinolin]-8′-yl)-2-(4-morpholinopiperidin-l-yl)pyridin-3-yl)cyclopropanesulfonamide hydrochloride], the half-inhibitory concentration (IC50) is 0.5 to 1 nM at DNA-PK (20 μM ATP) and less than 0.5 nM on ATM (setting [1]).
Consider `CN1C(=O)C2(CCC2)c2c1cnc1ccc(-c3cnc(OCCCN4CCC(F)CC4)c(NS(C)(=O)=O)c3)cc21` [Example 286, N-(2-(3-(4-Fluoropiperidin-1-yl)propoxy)-5-(3′-methyl-2′-oxo-2′,3′-dihydrospiro[cyclobutane-1,1′-pyrrolo[2,3-c]quinolin]-8′-yl)pyridin-3-yl)methanesulfonamide], for which the IC50 at DNA-PK (ATP 20 μM) was less than 0.5 nM; at ATM (setting [2]) it was 1 to 100 nM.
